{"source": "patent US12667566B2", "about": "“Combination therapy of GPR119 agonists and DPP-4 inhibitors” (MANKIND PHARMA LTD., priority 2019, dated 2026)", "key": {"active GLP-1": {"system": "active GLP-1", "assay": "Active GLP-1 estimation", "type": "in vivo", "conditions": "male Sprague Dawley rats, oral", "description": "FIG. 2. Effect of GPR119 agonist Formula 1A on active GLP-1 levels in male Sprague Dawley rats. Formula 1A was administered to the rats and GLP-1 levels were estimated at different time points (0, 5, 15, 30 & 60 min) and compared to vehicle group. Data was analysed by One-Way ANOVA followed by Dunnett's Multiple Comparison Test. *P<0.05, **P<0.01, ***P<0.001 vs vehicle control. Vehicle used was 0.5% Tween 80 and 99.5% NaCMC in water (0.5% w/v).\nGLP-1 estimation is conducted in male Sprague dawley rats. Animals of 8-10 weeks old were kept for overnight fasting (only water was provided ad libitum). […] were randomized based on basal glucose values into four different groups. Vehicle (0.5% Tween 80 and 99.5% NaCMC in water (0.5% w/v) was administered to control animals and remaining groups were administered with test compound prepared in vehicle at respective doses orally.\nFor active GLP-1 estimation, blood was collected by retro orbital puncture under isoflurane anesthesia. Active GLP-1 levels were estimated from the collected plasma at −30, 0, 5, 15, 30 & 60 min time points. Blood collection (Approximately 400-500 μl) was done by retro orbital puncture under isoflurane anesthesia with the help of DPP-4 inhibitor (#DPP4-010, Merck-Millipore) rinsed capillaries and collected into pre-coated Eppendorf (10 μl/ml of blood) with DPP-4 inhibitor."}, "blood glucose": {"system": "blood glucose", "assay": "Oral glucose tolerance test (OGTT)", "type": "in vivo", "conditions": "male Sprague Dawley rats, glucose load 2 g/kg", "description": "FIG. 1. Oral glucose tolerance test (OGTT) of GPR119 agonist Formula 1A in male Sprague Dawley rats. Formula 1A was administered to the rats and blood glucose was monitored post 30 min of dose administration (0-time point). After glucose administration (2 g/kg/10 ml), glucose levels were estimated at different time points (5, 15, 30, 60 & 120 min) and compared to vehicle group. Data was analysed by One-Way ANOVA followed by Dunnett's Multiple Comparison Test. *P<0.05, **P<0.01 & ***P<0.001 vs vehicle control. Vehicle used was 0.5% Tween 80 and 99.5% NaCMC in water (0.5% w/v).\nOGTT study is conducted in male Sprague dawley rats. […] Vehicle (0.5% Tween 80 and 99.5% NaCMC in water (0.5% w/v) was administered to control animals and remaining groups were administered with test compound prepared in vehicle at respective doses orally. Blood samples were collected immediately after test compound administration (which was −30 min time point). Blood glucose was monitored post 30 min of dose administration (which was a zero min time point). All animals received 2 g/kg/10 ml (20%) of Glucose solution orally. After glucose administration, glucose levels were estimated at different time points (5, 15, 30, 60 & 120 min). Estimation of blood glucose level was done by strip method. […] Blood glucose AUC was calculated from the samples collected at respective time points. […]"}}, "data": [{"smiles": "CCc1cnc(N2CCC([C@H](C)Oc3nn4cc(-c5ccc(S(C)(=O)=O)cc5F)nc4s3)CC2)nc1", "note": "[Formula IA]", "values": [{"measurement": "increase in active GLP-1 secretion compared to vehicle", "setting": "active GLP-1; 10 mg/kg/wt", "result": 123, "unit": "%"}, {"measurement": "glucose reduction compared to vehicle", "setting": "blood glucose; 10 mg/kg", "result": 16, "unit": "%"}]}, {"smiles": "N[C@@H](CC(=O)N1CCn2c(nnc2C(F)(F)F)C1)Cc1cc(F)c(F)cc1F", "note": "[sitagliptin, (3R)-3-amino-1-[3-(trifluoromethyl)-5,6,7,8-tetrahydro-5H-[1,2,4]triazolo-[4,3-a]pyrazin-7-yl]-4-(2,4,5-trifluorophenyl) butan-1-one]", "values": [{"measurement": "increase in active GLP-1 secretion compared to vehicle", "setting": "active GLP-1; 3 mg/kg/wt", "result": 253, "unit": "%"}, {"measurement": "glucose reduction compared to vehicle", "setting": "blood glucose; 3 mg/kg", "result": 15, "unit": "%"}]}]}
